In patent US9896423B2, “Deuterium substituted 1-[2-(2,4-dimethyl-phenylsulfanyl)-phenyl]piperazine compound or derivatives thereof, and pharmaceutical composition and use thereof” (Jiangsu Jibeier Pharmaceutical Co. Ltd., priority 2014, dated 2018):
Values joined by “and” are separate entries in the source; they are usually repeats but may differ in a detail not shown here. Equal entries are not always repeated. Structures can show the parent of a compound that is named as a salt. Where two headings read alike, the source gives them in different places.

Legend:
[1] = tested on: Male ICR mice; assay: Mice tail suspension test; type: in vivo; settings: for effect on length of time that the tail-suspended mice stopped moving vs blank control: two successive weeks; for Duration without Move within 6 min: mice tail suspension, gavage 14 days, n = 10, x ± s
Source text: The following method is used for testing the antidepression effect of the compound of the present application. ICR mice or SD rats, gavaged for two successive weeks, were subjected to mice swimming test, mice tail suspension test and rats swimming test. See below for details of the tests and results.
The animals, medicaments, calculation of dosages to the mice, preparation of drug solution and apparatus are the same as those in the mice swimming test.
The medicaments were correspondingly administered by gavage, once a day, to the animals in the groups for 14 successive days, with the amount of 0.2 ml per 10 g of body weight. The mice were subjected to tail suspension one hour later after the last oral administration. The suspension continued for 6 min.
The data was given as “average±standard deviation” (x±s). One-way analysis of variance (ANOVA) was used for data difference statistics. Differences among the groups were determined by P<0.05.

[2] = Pharmacokinetic test in rats, gavage administration; type: in vivo, SD rats
Protocol: The preferred compound of the present disclosure was assessed in rats for its pharmacokinetic profile.
SD rats, male and female, weighing 150 to 250 g
Mobile phase: 10 mM ammonium formate aqueous solution:methanol=15:85
The ionization source was electrospray ionization source. The detection mode was positive mode. Multiple reaction monitoring (MRM) was used as the scanning mode. The ion reaction for the quantitative analysis was the following: m/z was 305.2\150.0 for XX, and 256.1\167.1 for diphenhydramine (the internal standard).
XX or YY was orally administered with single dose of 20 mg/kg to six SD rats, one half of which were male and the other half was female. XX or YY was dissolved in 10% hydroxypropyl-β-cyclodextrin. […]
After the blood collection, the tubes were immediately gently turned upside down at least five times to ensure sufficient mixing, and placed on ice. Heparin was added for anticoagulation. The samples were centrifuged at 8000 rpm for 5 min to separate serum from erythrocyte. The serum was transferred with a pipettor to 2 mL polypropylene (PP) tubes, which were marked with the name of the compound and the time points, and stored in a refrigerator at −40° C. before LC-MS analysis. Samples with high concentrations were diluted with rat blank plasma.
2.5 μL of Meth-H2O and 5 μL of the internal standard solution (20 ng/mL, IS) were added to 50 μL of the plasma. Subsequently, 150 μL of methanol was added to the mixture to precipitate protein and the samples were then centrifuged at 13000 rpm for 5 min. The upper organic phase was taken out, filtrated with a 0.22 μM microporous membrane, and 2 μL of the sample was injected for the LC-MS analysis.

[2H]C([2H])([2H])c1ccc(Sc2ccccc2N2CCNCC2)c(C([2H])([2H])[2H])c1 [XX, 1-{2-[2,4-bis(trideuteriomethyl)phenylsulfanyl]phenyl}piperazine hydrobromic acid salt]
effect on length of time that the tail-suspended mice stopped moving vs blank control ([1]; 1.5 mg/kg gavage): showed a tendency to shorten
effect on length of time that the tail-suspended mice stopped moving vs blank control ([1]; 3 mg/kg gavage): markedly shortened
Duration without Move within 6 min ([1]; 1.5 mg/kg): 212.6 ± 54.9 s
Duration without Move within 6 min ([1]; 3 mg/kg): 152.9 ± 35.4 s
Concentrations in Plasma of Rats after Oral Administration ([2]; 20 mg/kg oral, 10 min (Table 5: 0.167 h) after administration, individual rats 1-6): 10.6 ng/mL and 7 ng/mL and 7.88 ng/mL and 24.8 ng/mL and 15.6 ng/mL and 16.2 ng/mL
Concentrations in Plasma of Rats after Oral Administration ([2]; 20 mg/kg oral, 1 h, individual rats 1-6): 68.4 ng/mL and 83.6 ng/mL and 55.2 ng/mL and 107.6 ng/mL and 144 ng/mL and 115.8 ng/mL
Concentrations in Plasma of Rats after Oral Administration ([2]; 20 mg/kg oral, 1.5 h, individual rats 1-6): 91.6 ng/mL and 77.4 ng/mL and 120.8 ng/mL and 142.8 ng/mL and 109.6 ng/mL
Concentrations in Plasma of Rats after Oral Administration ([2]; 20 mg/kg oral, 2 h, individual rats 1-6): 86.6 ng/mL and 77.8 ng/mL and 118.4 ng/mL and 119.6 ng/mL and 108 ng/mL
Concentrations in Plasma of Rats after Oral Administration ([2]; 20 mg/kg oral, 3 h, individual rats 1-6): 65.8 ng/mL and 53.8 ng/mL and 85.8 ng/mL and 77.6 ng/mL and 71.2 ng/mL
Concentrations in Plasma of Rats after Oral Administration ([2]; 20 mg/kg oral, 4 h, individual rats 1-6): 60.8 ng/mL and 56 ng/mL and 61.2 ng/mL and 85.6 ng/mL and 63.4 ng/mL
Concentrations in Plasma of Rats after Oral Administration ([2]; 20 mg/kg oral, 6 h, individual rats 1-6): 48.7 ng/mL and 36.8 ng/mL and 42.8 ng/mL and 54.6 ng/mL and 35.5 ng/mL
Concentrations in Plasma of Rats after Oral Administration ([2]; 20 mg/kg oral, 8 h, individual rats 1-6): 22.5 ng/mL and 20.9 ng/mL and 31.7 ng/mL and 25.1 ng/mL and 18.9 ng/mL
Concentrations in Plasma of Rats after Oral Administration ([2]; 20 mg/kg oral, 10 h, individual rats 1-6): 17.9 ng/mL and 15.5 ng/mL and 20.3 ng/mL and 14.9 ng/mL and 13.5 ng/mL
Concentrations in Plasma of Rats after Oral Administration ([2]; 20 mg/kg oral, 12 h, individual rats 1-6): 8.22 ng/mL and 6.78 ng/mL and 11.3 ng/mL and 7.08 ng/mL and 7.2 ng/mL
Concentrations in Plasma of Rats after Oral Administration ([2]; 20 mg/kg oral, 14 h, individual rats 1-6): 4.01 ng/mL and 3.56 ng/mL and 7.32 ng/mL and 4.43 ng/mL and 3.11 ng/mL and 3.19 ng/mL
Concentrations in Plasma of Rats after Oral Administration ([2]; 20 mg/kg oral, 24 h, individual rats 1-6): 1.46 ng/mL and 0.571 ng/mL and 0.368 ng/mL and 1.32 ng/mL and 0.365 ng/mL and 0.389 ng/mL
bioavailability ([2]; both sexes, SD, rat, plasma, po, 20 mg/kg, rats, oral 20 mg/kg vs iv 2 mg/kg, individual rats 1-6, read-out: F %): 11%
AUC(0-t) ([2]; both sexes, SD, rat, plasma, po, 20 mg/kg, rats, oral 20 mg/kg, individual rats 1-6, read-out: AUC0-1): 524 ng·h/mL
AUC(0-inf) ([2]; both sexes, SD, rat, plasma, po, 20 mg/kg, rats, oral 20 mg/kg, individual rats 1-6, read-out: AUC0-∞): 532 ng·h/mL
Cmax ([2]; both sexes, SD, rat, plasma, po, 20 mg/kg, rats, oral 20 mg/kg, individual rats 1-6, read-out: Cmax): 78.6 ng/mL
MRT inf ([2]; both sexes, SD, rat, plasma, po, 20 mg/kg, rats, oral 20 mg/kg, individual rats 1-6, read-out: MRT0-∞): 5.62 h
AUC(0-t) ([2]; both sexes, SD, rat, plasma, po, 20 mg/kg, rats, oral 20 mg/kg, n = 6, read-out: AUC0-1, Mean ± SD): 583 ± 82.7 ng·h/mL
AUC(0-inf) ([2]; both sexes, SD, rat, plasma, po, 20 mg/kg, rats, oral 20 mg/kg, n = 6, read-out: AUC0-∞, Mean ± SD): 586 ± 82.8 ng·h/mL
Cmax ([2]; both sexes, SD, rat, plasma, po, 20 mg/kg, rats, oral 20 mg/kg, n = 6, read-out: Cmax, Mean ± SD): 105 ± 26.5 ng/mL
MRT inf ([2]; both sexes, SD, rat, plasma, po, 20 mg/kg, rats, oral 20 mg/kg, n = 6, read-out: MRT0-∞, Mean ± SD): 4.93 ± 0.58 h
half-life ([2]; both sexes, SD, rat, plasma, po, 20 mg/kg, rats, oral 20 mg/kg, n = 6, read-out: t1/2, Mean ± SD (converted)): 2.92 ± 0.8 h
concentration at 10 min ([2]; both sexes, Sprague-Dawley, rat, plasma, oral, 20 mg/kg, 20 mg/kg oral, 10 min (Table 5: 0.167 h), mean of 6 rats, read-out: Concentrations in Plasma of Rats after Oral Administration, Mean ± SD): 13.7 ± 6.65 ng/mL
concentration at 0.5 h ([2]; both sexes, Sprague-Dawley, rat, plasma, oral, 20 mg/kg, 20 mg/kg oral, 0.5 h, mean of 6 rats, read-out: Concentrations in Plasma of Rats after Oral Administration, Mean ± SD): 62.9 ± 19.6 ng/mL
